Here are results for 19 molecules from patent US10501425B2, “Microbiocidal oxadiazole derivatives” (SYNGENTA PARTICIPATIONS AG, priority 2015, dated 2019).

Values joined by “and” are separate entries in the source; they are usually repeats but may differ in a detail not shown here. Identical values can stand only once.

Data set [1] concerns Puccinia recondita f. Sp. Tritici. As to the kind of experiment: Puccinia recondita f. sp. tritici / wheat / leaf disc curative (brown rust). The conditions noted are these: foliar, 24 h, 200 ppm in the applied formulation, wheat leaf segments cv. Kanzler, curative (applied 1 day after inoculation), compared to untreated, read-out: disease control. It counts as in vivo. A digest of the protocol: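 Compound applied 1 day after spore inoculation of wheat cv. Kanzler leaf segments on agar (dark, 19 °C, 75% RH before treatment). After further incubation under 12 h light/12 h dark at 19 °C and 75% RH, disease control relative to untreated segments rated 6–8 days post-application.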

Data set [2] deals with Phakopsora pachyrhizi. Kind of data set: Phakopsora pachyrhizi / soybean / leaf disc preventative (Asian soybean rust). It counts as in vivo. The conditions noted are these: foliar, 200 ppm in the applied formulation, soybean leaf disks, compared to untreated, read-out: disease control. In outline:
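Read-out is percent disease control relative to untreated check discs, assessed once untreated discs show adequate disease, 12 to 14 days after application. Compounds, tested at 200 ppm in the applied formulation, are sprayed onto soybean leaf discs one day before inoculation with a spore suspension.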

Data set [3] relates to Glomerella lacenarium (Colletotrichum lagenarium). Kind of data set: Glomerella lagenarium liquid culture / cucumber / preventative (anthracnose). The class given is cell-based. The conditions noted are these: Colletotrichum orbiculare; 20 ppm in the applied formulation; liquid culture (PDB), growth inhibition measured photometrically 3 to 4 days after application; compared to untreated; read-out: disease control. A digest of the protocol:
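Conidia from cryogenic storage were mixed into potato dextrose broth. This was added to compound diluted from DMSO into 0.025% Tween20, tested at 20 ppm. Plates were incubated in the dark at 24 °C and 96% relative humidity, and growth was read photometrically after 2–7 days as % activity versus untreated check.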

Data set [4] has as its system Puccinia recondita f. Sp. Tritici. As to the kind of experiment: Puccinia recondita f. sp. tritici / wheat / leaf disc preventative (brown rust). It counts as in vivo. To be noted: foliar, 200 ppm in the applied formulation, wheat leaf segments cv. Kanzler, preventative (inoculated 1 day after application), compared to untreated, read-out: disease control. In outline:
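Single evaluation 7–9 d after spraying: % disease control compared with untreated leaf segments. Protocol: cv. Kanzler segments, preventative spray at 200 ppm, spore inoculation at day 1, 19° C., 75% rh, 12 h light/12 h dark.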

The melting point is the temperature of the solid-liquid transition. The molecule `C#CCOC(=O)NCc1ccc(-c2noc(C(F)(F)F)n2)cc1` [Compound 2.19, prop-2-ynyl N-[[4-[5-(trifluoromethyl)-1,2,4-oxadiazol-3-yl]phenyl]methyl]carbamate] returned a melting point of 93 to 95 °C. The pest or weed control at 200 ppm in data set [1] was ≥ 80%. Besides, the pest or weed control at 200 ppm in data set [2] was ≥ 80%. The inhibition of growth at 20 ppm in data set [3] was ≥ 80%. Further, the pest or weed control at 200 ppm in data set [4] was ≥ 80%.

With `CCC(=O)NC(C)(C)c1ccc(-c2noc(C(F)(F)F)n2)cc1` [Compound 1.93, N-[1-methyl-1-[4-[5-(trifluoromethyl)-1,2,4-oxadiazol-3-yl]phenyl]ethyl]propanamide], the melting point was in the range of 142 to 146 °C. In addition, the pest or weed control at 200 ppm in data set [1] was ≥ 80%. Also, the pest or weed control at 200 ppm in data set [2] was ≥ 80%. Further, in data set [3], the inhibition of growth at 20 ppm is ≥ 80%. Moreover, in data set [4], the pest or weed control at 200 ppm was ≥ 80%.

In the case of `CCC(=O)NCc1ccc(-c2noc(C(F)(F)F)n2)c(F)c1` [Compound 1.34, N-[[3-fluoro-4-[5-(trifluoromethyl)-1,2,4-oxadiazol-3-yl]phenyl]methyl]propanamide], the melting point lay within 108 to 110 °C. Also, the pest or weed control at 200 ppm in data set [1] is ≥ 80%. In addition, the pest or weed control at 200 ppm in data set [2] is ≥ 80%. In addition, the inhibition of growth at 20 ppm in data set [3] was ≥ 80%. Besides, the pest or weed control at 200 ppm in data set [4] is ≥ 80%.

In turn, `CON(C)C(=O)NC1(c2ccc(-c3noc(C(F)(F)F)n3)cc2)CC1` [Compound 3.26, 1-methoxy-1-methyl-3-[1-[4-[5-(trifluoromethyl)-1,2,4-oxadiazol-3-yl]phenyl]cyclopropyl]urea] had a melting point of 81 to 83 °C. Also, the pest or weed control at 200 ppm in data set [1] was ≥ 80%. In addition, the pest or weed control at 200 ppm in data set [2] is ≥ 80%. Further, the inhibition of growth at 20 ppm in data set [3] was ≥ 80%. In data set [4], the pest or weed control at 200 ppm is ≥ 80%.

`CC(O)C(=O)NCc1ccc(-c2noc(C(F)(F)F)n2)cc1` (centres unmarked) [Compound 1.28, 2-hydroxy-N-[[4-[5-(trifluoromethyl)-1,2,4-oxadiazol-3-yl]phenyl]methyl]propanamide] yielded a melting point of 90 to 94 °C. Also, in data set [1], the pest or weed control at 200 ppm is ≥ 80%. For the same molecule, the pest or weed control at 200 ppm in data set [2] is ≥ 80%. In data set [3], the inhibition of growth at 20 ppm was ≥ 80%. For the same molecule, in data set [4], the pest or weed control at 200 ppm was ≥ 80%.

`CCC(=O)NCCc1ccc(-c2noc(C(F)(F)F)n2)cc1` [Compound 1.29, N-[2-[4-[5-(trifluoromethyl)-1,2,4-oxadiazol-3-yl]phenyl]ethyl]propanamide]: the melting point was 133.6 to 135 °C and 133 to 145 °C. Besides, the pest or weed control at 200 ppm in data set [1] was ≥ 80%. The pest or weed control at 200 ppm in data set [2] is ≥ 80%. In addition, the inhibition of growth at 20 ppm in data set [3] is ≥ 80%. The pest or weed control at 200 ppm in data set [4] is ≥ 80%.

In the case of `CC(=O)NCc1ccc(-c2noc(C(F)(F)F)n2)cc1` [Compound 1.101, N-[[4-[5-(trifluoromethyl)-1,2,4-oxadiazol-3-yl]phenyl]methyl]acetamide], the melting point lay within 130 to 135 °C. The pest or weed control at 200 ppm in data set [1] was ≥ 80%. Further, in data set [2], the pest or weed control at 200 ppm is ≥ 80%. Further, the inhibition of growth at 20 ppm in data set [3] is ≥ 80%. The pest or weed control at 200 ppm in data set [4] was ≥ 80%.

For the molecule `CCC(=O)NCC(F)c1ccc(-c2noc(C(F)(F)F)n2)cc1` (centres unmarked) [Compound 1.107, N-[2-fluoro-2-[4-[5-(trifluoromethyl)-1,2,4-oxadiazol-3-yl]phenyl]ethyl]propanamide], the melting point is 118 to 128 °C. In data set [1], the pest or weed control at 200 ppm is ≥ 80%. Moreover, the pest or weed control at 200 ppm in data set [2] was ≥ 80%. In addition, in data set [3], the inhibition of growth at 20 ppm is ≥ 80%. In data set [4], the pest or weed control at 200 ppm is ≥ 80%.

In the case of `O=C(NCc1ccc(-c2noc(C(F)(F)F)n2)cc1)C(F)(F)F` [Compound 1.102, 2,2,2-trifluoro-N-[[4-[5-(trifluoromethyl)-1,2,4-oxadiazol-3-yl]phenyl]methyl]acetamide], the melting point fell in the range of 146 to 149 °C. Also, the pest or weed control at 200 ppm in data set [1] is ≥ 80%. Further, the pest or weed control at 200 ppm in data set [2] was ≥ 80%. Moreover, the inhibition of growth at 20 ppm in data set [3] was ≥ 80%. The pest or weed control at 200 ppm in data set [4] is ≥ 80%.

The molecule `CCC(=O)NCc1ccc(-c2noc(C(F)(F)F)n2)cc1F` [Compound 1.26, N-[[2-fluoro-4-[5-(trifluoromethyl)-1,2,4-oxadiazol-3-yl]phenyl]methyl]propanamide] showed a melting point of 99 to 110 °C. In addition, in data set [1], the pest or weed control at 200 ppm is ≥ 80%. For the same molecule, the pest or weed control at 200 ppm in data set [2] was ≥ 80%. Besides, in data set [3], the inhibition of growth at 20 ppm was ≥ 80%. For the same molecule, the pest or weed control at 200 ppm in data set [4] is ≥ 80%.

The molecule `COCCNC(=O)NCc1ccc(-c2noc(C(F)(F)F)n2)cc1` [Compound 3.3] yielded a melting point of 152 to 155 °C. For the same molecule, the pest or weed control at 200 ppm in data set [1] was ≥ 80%. Besides, the pest or weed control at 200 ppm in data set [2] was ≥ 80%. The inhibition of growth at 20 ppm in data set [3] is ≥ 80%. The pest or weed control at 200 ppm in data set [4] was ≥ 80%.

`COCC(=O)NCc1ccc(-c2noc(C(F)(F)F)n2)cc1` [Compound 1.25, 2-methoxy-N-[[4-[5-(trifluoromethyl)-1,2,4-oxadiazol-3-yl]phenyl]methyl]acetamide] came in with a melting point of 127 to 128 °C. For the same molecule, the pest or weed control at 200 ppm in data set [1] was ≥ 80%. Also, in data set [2], the pest or weed control at 200 ppm is ≥ 80%. Further, in data set [3], the inhibition of growth at 20 ppm was ≥ 80%. Also, in data set [4], the pest or weed control at 200 ppm is ≥ 80%.

Regarding `COC(C)(C)C(=O)NCc1ccc(-c2noc(C(F)(F)F)n2)cc1` [Compound 1.103, 2-methoxy-2-methyl-N-[[4-[5-(trifluoromethyl)-1,2,4-oxadiazol-3-yl]phenyl]methyl]propanamide], the melting point is 77 to 80 °C. In addition, the pest or weed control at 200 ppm in data set [1] is ≥ 80%. Further, in data set [2], the pest or weed control at 200 ppm was ≥ 80%. Further, the inhibition of growth at 20 ppm in data set [3] was ≥ 80%. The pest or weed control at 200 ppm in data set [4] was ≥ 80%.

Regarding `CON(C)C(=O)NCc1ccc(-c2noc(C(F)(F)F)n2)cc1` [Compound 3.2, 1-methoxy-1-methyl-3-[[4-[5-(trifluoromethyl)-1,2,4-oxadiazol-3-yl]phenyl]methyl]urea], the melting point was in the range of 90.2 to 93.8 °C. The pest or weed control at 200 ppm in data set [1] is ≥ 80%. The pest or weed control at 200 ppm in data set [2] is ≥ 80%. The inhibition of growth at 20 ppm in data set [3] is ≥ 80%. Further, in data set [4], the pest or weed control at 200 ppm was ≥ 80%.

Regarding `COCCOC(=O)NCc1ccc(-c2noc(C(F)(F)F)n2)cc1` [Compound 2.3, 2-methoxyethyl N-[[4-[5-(trifluoromethyl)-1,2,4-oxadiazol-3-yl]phenyl]methyl]carbamate], the melting point is 82 to 85 °C. Also, the pest or weed control at 200 ppm in data set [1] was ≥ 80%. The pest or weed control at 200 ppm in data set [2] was ≥ 80%. For the same molecule, in data set [3], the inhibition of growth at 20 ppm is ≥ 80%. For the same molecule, in data set [4], the pest or weed control at 200 ppm was ≥ 80%.

Turning to `O=C(COC(F)F)NCc1ccc(-c2noc(C(F)(F)F)n2)cc1` [Compound 1.97, 2-(difluoromethoxy)-N-[[4-[5-(trifluoromethyl)-1,2,4-oxadiazol-3-yl]phenyl]methyl]acetamide], the melting point lay within 92 to 100 °C. In addition, in data set [1], the pest or weed control at 200 ppm was ≥ 80%. Also, the pest or weed control at 200 ppm in data set [2] was ≥ 80%. Further, the inhibition of growth at 20 ppm in data set [3] was ≥ 80%. In addition, the pest or weed control at 200 ppm in data set [4] was ≥ 80%.

Take `CCC(=O)NCc1ccc(-c2noc(C(F)(F)F)n2)c(F)c1F` [Compound 1.54, N-[[2,3-difluoro-4-[5-(trifluoromethyl)-1,2,4-oxadiazol-3-yl]phenyl]methyl]propanamide]: the melting point lay within 112 to 118 °C. For the same molecule, the pest or weed control at 200 ppm in data set [1] was ≥ 80%. Besides, the pest or weed control at 200 ppm in data set [2] was ≥ 80%. Further, the inhibition of growth at 20 ppm in data set [3] was ≥ 80%. Further, the pest or weed control at 200 ppm in data set [4] was ≥ 80%.

`CNC(=O)NCc1ccc(-c2noc(C(F)(F)F)n2)cc1` [Compound 3.4, 1-methyl-3-[[4-[5-(trifluoromethyl)-l,2,4-oxadiazol-3-yl]phenyl]methyl]urea] had a melting point of 198 to 201 °C. Further, the pest or weed control at 200 ppm in data set [1] is ≥ 80%. Further, in data set [2], the pest or weed control at 200 ppm was ≥ 80%. Further, the inhibition of growth at 20 ppm in data set [3] was ≥ 80%. For the same molecule, the pest or weed control at 200 ppm in data set [4] was ≥ 80%.

`COCC(=O)NC1(c2ccc(-c3noc(C(F)(F)F)n3)cc2)CC1` [Compound 1.96, 2-methoxy-N-[1-[4-[5-(trifluoromethyl)-1,2,4-oxadiazol-3-yl]phenyl]cyclopropyl]acetamide] gave a melting point of 95 to 99 °C. Also, the pest or weed control at 200 ppm in data set [1] is ≥ 80%. Moreover, in data set [2], the pest or weed control at 200 ppm is ≥ 80%. For the same molecule, the inhibition of growth at 20 ppm in data set [3] was ≥ 80%. Further, in data set [4], the pest or weed control at 200 ppm was ≥ 80%.
